Experimental data published in article PMC5506657, “Improvement in phosphate acquisition and utilization by a secretory purple acid phosphatase (OsPAP21b) in rice” (Plant Biotechnology Journal, 2017).

Legend:
OsPAP21b [1] = experiment: released Pi by vanadomolybdate; Lineweaver-Burk; format: biochemical, Oryza sativa; conditions: 5 mM MgCl2, 50 mM sodium acetate pH 5.0, 37 °C; 0.1-100 mM substrate
OsPAP21b [2] = conditions: 10 mM pNPP; 0 to 25 mM NaH2PO4; 5 mM MgCl2, 50 mM sodium acetate pH 5.0, 37 °C; reaction product as inhibitor

Row | Km (OsPAP21b [1]) | IC50 (OsPAP21b [2]) | SMILES
1 | 77 ± 4 µM | – | Nc1ncnc2c1ncn2[C@@H]1O[C@H](COP(=O)(O)OP(=O)(O)O)[C@@H](O)[C@H]1O [ADP]
2 | – | 5.09 ± 1.34 mM | O=P(O)(O)O [Pi]
3 | 90 ± 10 µM | – | O=[N+]([O-])c1ccc(OP(=O)(O)O)cc1 [pNPP]
